Measurements reported in patent US20220153734A1, “Pyrazolopyridine Compounds For IRE1 Inhibition” (Optikira, LLC, priority 2019, published 2022).

Experiments:
IRE1α = molecular target: T1, IRE1α (Homo sapiens, UniProt O75460); test: Biochemical assay: inhibition of RNase activity of IRE1α; conditions: enzyme 0.325 nM, substrate 100 nM, 20 minutes
T1 construct: purchased Signal Chem E31-11G
Description: Biochemical Assay: Inhibition of RNase Activity of IRE1α
The RNase reactions were performed in 384 well black ProxiPlate-384 Plus plates (PERKIN Elmer) using 50 mM Tris assay buffer with 0.5 mM MgCl2, 10 mM KCl, 0.03% Tween, 2 mM DTT and 1% DMSO. Test compounds were prepared on the day of assay and dispensed using D300 digital dispenser as a 10-point ½ log dilution series in duplicate, normalized to a final DMSO concentration of […]. Test compounds were pre-incubated for 30 min at room temperature with IRE1α kinase (E31-11G from Signal Chem) in 2.5 μL of assay buffer. Then 2.5 μl of assay buffer containing substrate (5′ Alexa Fluor 647-rCrArU rGrUrC rCrGrC rArGrC rGrCrArUrG-Iowa Black RQ quencher 3′) added, giving a final concentration of enzyme of 0.325 nM and of substrate of 100 nM. After 20 minutes incubation at room temperature the reactions were stopped by added 5 μL of 5M urea, incubated at room temperature for 10 minutes and fluorescence measured on a plate reader (EnVision, PerkinElmer). IC50 values calculated by fitting a sigmoidal curve to percent inhibition of control versus compound concentration.

[1] = test system: ARPE-19 cells stably expressing XBP1 (a.a. 1-376); test: Cellular XBP1 splicing assay (NanoLuc luciferase, thapsigargin); format: cell-based; conditions: thapsigargin 150 nM
Description: Cellular XBP1 Splicing Assay
ARPE-19 cells stably expressing XBP1 (a.a. 1-376) with nano-luciferase gene sequence linked so it is in frame when XBP1 is spliced, were cultured in F12 media, 10% FBS, 0.044% sodium bicarbonate, 150 μg/ml hygromycin B and seeded for assays at 5,000 cells in 384 well plates in culture media without hygromycin B and incubated at 37° C./5% CO2. After overnight incubation test compounds were added to the cell plate in a 10-point ½ log dilution series in duplicate (final DMSO concentration 0.117%). After further incubation of 30 minutes thapsigargin was added (final concentration 150 nM) and then another 4 hour incubation. A NanoLuc luciferase assay (Promega) was used according to the manufacturer's instructions to detect the luciferase and luminescence measured on a luminometer (EnVision, PerkinElmer). IC50 values calculated by fitting a sigmoidal curve to percent inhibition of control of compound concentration.

T1 sequence (O75460 468-977 limits assumed): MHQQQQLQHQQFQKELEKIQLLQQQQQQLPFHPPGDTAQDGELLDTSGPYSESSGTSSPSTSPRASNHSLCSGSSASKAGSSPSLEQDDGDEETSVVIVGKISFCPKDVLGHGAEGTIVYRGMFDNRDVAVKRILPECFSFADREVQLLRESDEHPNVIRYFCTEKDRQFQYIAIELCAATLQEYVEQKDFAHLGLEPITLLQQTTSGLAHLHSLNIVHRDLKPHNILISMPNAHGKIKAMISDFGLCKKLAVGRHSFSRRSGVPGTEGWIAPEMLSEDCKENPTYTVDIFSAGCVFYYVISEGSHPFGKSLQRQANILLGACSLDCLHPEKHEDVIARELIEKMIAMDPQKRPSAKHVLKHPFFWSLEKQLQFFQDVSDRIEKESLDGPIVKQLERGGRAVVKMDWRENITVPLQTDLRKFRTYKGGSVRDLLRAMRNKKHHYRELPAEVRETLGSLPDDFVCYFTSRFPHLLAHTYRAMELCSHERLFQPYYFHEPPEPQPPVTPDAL

IC50 (IRE1α) [nM] | IC50 ([1]; Homo sapiens, ARPE-19, 4 h) [nM] | IC50 ([1]; 4 hour) [nM] | SMILES
60 | 160 | – | CC(C)n1nc(-c2cc(F)c(NS(=O)(=O)c3ccccc3Cl)cc2F)c2c(N)ncc(C3=CCC(NC4COC4)CC3)c21 (racemic) [racemic mixture of B10 & B11, N-(4-(4-amino-1-isopropyl-7-(4-(oxetan-3-ylamino)cyclohex-1-en-1-yl)-1H-pyrazolo[4,3-c]pyridin-3-yl)-2,5-difluorophenyl)-2-chlorobenzenesulfonamide]
60 | 3.3 | – | CC(C)n1nc(-c2ccc(NS(=O)(=O)c3cc(Cl)ccc3F)c(F)c2)c2c(N)ncc(C3=CCC(NC4COC4)CC3)c21 (racemic) [racemic mixture of B14 & B15, N-(4-(4-amino-1-isopropyl-7-(4-(oxetan-3-ylamino)cyclohex-1-en-1-yl)-1H-pyrazolo[4,3-c]pyridin-3-yl)-2-fluorophenyl)-5-chloro-2-fluorobenzenesulfonamide]
13 | 94 | – | Cc1ccc(F)c(S(=O)(=O)Nc2ccc(-c3nn(C(C)C)c4c(C5=CCC(NC6COC6)CC5)cnc(N)c34)cc2F)c1 (racemic) [racemic mixture of B16 & B17, N-(4-(4-amino-1-isopropyl-7-(4-(oxetan-3-ylamino)cyclohex-1-en-1-yl)-1H-pyrazolo[4,3-c]pyridin-3-yl)-2-fluorophenyl)-2-fluoro-5-methylbenzenesulfonamide]
26 | 52 | – | CC(C)n1nc(-c2ccc(NS(=O)(=O)c3ccccc3Cl)c(F)c2)c2c(N)ncc(C3=CCC(NC4COC4)CC3)c21 (racemic) [racemic mixture of B56 & B57, N-(4-(4-amino-1-isopropyl-7-(4-(oxetan-3-ylamino)cyclohex-1-en-1-yl)-1H-pyrazolo[4,3-c]pyridin-3-yl)-2-fluorophenyl)-2-chlorobenzenesulfonamide]
61 | 92 | – | CC(C)n1nc(-c2ccc(NS(=O)(=O)c3ccccc3F)c(F)c2)c2c(N)ncc(C3=CCC(NC4COC4)CC3)c21 (racemic) [racemic mixture of B58 & B59, N-(4-(4-amino-1-isopropyl-7-(4-(oxetan-3-ylamino)cyclohex-1-en-1-yl)-1H-pyrazolo[4,3-c]pyridin-3-yl)-2-fluorophenyl)-2-fluorobenzenesulfonamide]
40 | 100 | – | CCn1nc(-c2ccc(NS(=O)(=O)c3ccccc3Cl)c(F)c2)c2c(N)ncc(C3=CCC(NC4COC4)CC3)c21 (racemic) [racemic mixture of B61 & B62, N-(4-(4-amino-1-ethyl-7-(4-(oxetan-3-ylamino)cyclohex-1-en-1-yl)-1H-pyrazolo[4,3-c]pyridin-3-yl)-2-fluorophenyl)-2-chlorobenzenesulfonamide]
2.4 | – | 30 | CC(C)n1nc(-c2ccc(NS(=O)(=O)Cc3ccccc3F)c(F)c2)c2c(N)ncc(C3=CCC(NC4COC4)CC3)c21 (single isomer, unassigned) [Compound B1, N-(4-(4-amino-1-isopropyl-7-(4-(oxetan-3-ylamino)cyclohex-1-en-1-yl)-1H-pyrazolo[4,3-c]pyridin-3-yl)-2-fluorophenyl)-1-(2-fluorophenyl)methanesulfonamide]
– | – | 38 | Nc1ncc(C2=CCC(NC3COC3)CC2)c2c1c(-c1ccc(NS(=O)(=O)Cc3ccccc3F)c(F)c1)nn2C1CC1 (single isomer, unassigned) [Compound B20, N-(4-(4-amino-1-cyclopropyl-7-(4-(oxetan-3-ylamino)cyclohex-1-en-1-yl)-1H-pyrazolo[4,3-c]pyridin-3-yl)-2-fluorophenyl)-1-(2-fluorophenyl)methanesulfonamide]
– | – | 11 | Nc1ncc(C2=CCC(NC3COC3)CC2)c2c1c(-c1ccc(NS(=O)(=O)Cc3ccccc3F)c(F)c1)nn2C1CC1 (single isomer, unassigned) [Compound B21, N-(4-(4-amino-1-cyclopropyl-7-(4-(oxetan-3-ylamino)cyclohex-1-en-1-yl)-1H-pyrazolo[4,3-c]pyridin-3-yl)-2-fluorophenyl)-1-(2-fluorophenyl)methanesulfonamide]
– | – | 170 | CCn1nc(-c2ccc(NS(=O)(=O)Cc3ccccc3Cl)cc2)c2c(N)ncc(C3=CCC(NC4COC4)CC3)c21 (single isomer, unassigned) [Compound B25, N-(4-(4-amino-1-ethyl-7-(4-(oxetan-3-ylamino)cyclohex-1-en-1-yl)-1H-pyrazolo[4,3-c]pyridin-3-yl)phenyl)-1-(2-chlorophenyl)methanesulfonamide]
– | – | 220 | CCn1nc(-c2ccc(NS(=O)(=O)c3cc(Cl)ccc3F)c(F)c2)c2c(N)ncc(C3=CCC(NC4COC4)CC3)c21 (single isomer, unassigned) [Compound B39, N-(4-(4-amino-1-ethyl-7-(4-(oxetan-3-ylamino)cyclohex-1-en-1-yl)-1H-pyrazolo[4,3-c]pyridin-3-yl)-2-fluorophenyl)-5-chloro-2-fluorobenzenesulfonamide]
– | – | 200 | CC(C)n1nc(-c2ccc(NS(=O)(=O)c3ccccc3Cl)c(F)c2)c2c(N)ncc(C3=CCC(NC4COC4)CC3)c21 (single isomer, unassigned) [Compound B56, N-(4-(4-amino-1-isopropyl-7-(4-(oxetan-3-ylamino)cyclohex-1-en-1-yl)-1H-pyrazolo[4,3-c]pyridin-3-yl)-2-fluorophenyl)-2-chlorobenzenesulfonamide]
– | – | 20 | CC(C)n1nc(-c2ccc(NS(=O)(=O)c3ccccc3Cl)c(F)c2)c2c(N)ncc(C3=CCC(NC4COC4)CC3)c21 (single isomer, unassigned) [Compound B57, N-(4-(4-amino-1-isopropyl-7-(4-(oxetan-3-ylamino)cyclohex-1-en-1-yl)-1H-pyrazolo[4,3-c]pyridin-3-yl)-2-fluorophenyl)-2-chlorobenzenesulfonamide]
– | 49 | – | COCCN[C@H]1CC[C@H](c2cnc(N)c3c(-c4cc(F)c(NS(=O)(=O)c5cccc(F)c5)cc4F)nn(C(C)C)c32)CC1 [Compound A33, N-(4-(4-amino-1-isopropyl-7-((1r,4r)-4-((2-methoxyethyl)amino)cyclohexyl)-1H-pyrazolo[4,3-c]pyridin-3-yl)-2,5-difluorophenyl)-3-fluorobenzenesulfonamide]
– | 44 | – | COCCN[C@H]1CC[C@H](c2cnc(N)c3c(-c4cc(F)c(NS(=O)(=O)c5cc(OC(F)(F)F)ccc5F)cc4F)nn(C(C)C)c32)CC1 [Compound A59, N-(4-(4-amino-1-isopropyl-7-((1r,4r)-4-((2-methoxyethyl)amino)cyclohexyl)-1H-pyrazolo[4,3-c]pyridin-3-yl)-2,5-difluorophenyl)-2-fluoro-5-(trifluoromethoxy)benzenesulfonamide]
– | 16 | – | CCCOc1ccc(F)c(S(=O)(=O)Nc2cc(F)c(-c3nn(C(C)C)c4c3c(N)ncc4[C@H]3CC[C@H](NCCOC)CC3)cc2F)c1 [Compound A60, N-(4-(4-amino-1-isopropyl-7-((1r,4r)-4-((2-methoxyethyl)amino)cyclohexyl)-1H-pyrazolo[4,3-c]pyridin-3-yl)-2,5-difluorophenyl)-2-fluoro-5-propoxybenzenesulfonamide]
– | 5 | – | COCCN[C@H]1CC[C@H](c2cnc(N)c3c(-c4cc(F)c(NS(=O)(=O)c5cc(Cl)ccc5Cl)cc4F)nn(C(C)C)c32)CC1 [Compound A61, N-(4-(4-amino-1-isopropyl-7-((1r,4r)-4-((2-methoxyethyl)amino)cyclohexyl)-1H-pyrazolo[4,3-c]pyridin-3-yl)-2,5-difluorophenyl)-2,5-dichlorobenzenesulfonamide]
– | 6 | – | CCc1ccc(Cl)c(S(=O)(=O)Nc2cc(F)c(-c3nn(C(C)C)c4c3c(N)ncc4[C@H]3CC[C@H](NCCOC)CC3)cc2F)c1 [Compound A62, N-(4-(4-amino-1-isopropyl-7-((1r,4r)-4-((2-methoxyethyl)amino)cyclohexyl)-1H-pyrazolo[4,3-c]pyridin-3-yl)-2,5-difluorophenyl)-2chloro-5-ethylbenzenesulfonamide]
– | 13 | – | CC(F)CN[C@H]1CC[C@H](c2cnc(N)c3c(-c4cc(F)c(NS(=O)(=O)c5ccccc5F)cc4F)nn(C(C)C)c32)CC1 (some centres unmarked) [Compound A63, N-(4-(4-amino-7-((1r,4r)-4-((2-fluoropropyl)amino)cyclohexyl)-1-isopropyl-1H-pyrazolo[4,3-c]pyridin-3-yl)-2,5-difluorophenyl)-2-fluorobenzenesulfonamide]
